{"source": "patent US7220784B2", "about": "“Substituted stilbenes and their reactions” (priority 2000, dated 2007)", "key": {"tubulin [1]": {"system": "tubulin", "experiment": "MA IC50 (Tables 12-26, abbreviation not defined)", "format": "biochemical"}, "tubulin [2]": {"system": "tubulin", "experiment": "CD IC50 (Tables 12-26, abbreviation not defined)", "format": "binding"}, "[3]": {"system": "L1210 murine leukaemia cell line", "experiment": "MTT, L1210", "format": "cell-based", "conditions": "Mus musculus; L1210 murine leukaemia cell line (footnote a)"}}, "data": [{"smiles": "COc1ccc(/C=C\\c2cc(O)c(OC)c(OC)c2)cc1O", "note": "[Compound 18, reference compound]", "values": [{"measurement": "IC50", "setting": "tubulin [1]", "value": "4 to 5", "unit": "µM"}, {"measurement": "IC50", "setting": "tubulin [2]", "value": 22, "unit": "µM"}, {"measurement": "IC50", "setting": "[3]", "value": 0.04, "unit": "µM"}]}]}
